Experiments:
Details in all cases: 72 h
Caco-2 [1] = test: cell viability relative to DMSO; higher = less toxic
Calu-3 [2] = test: as above
HepG2 [3] = test: as above
Caco-2 [4] = test: relative viability EC50 (midpoint between 100% and the lowest measured viability); higher = less toxic
Calu-3 [5] = test: as above
HepG2 [6] = test: as above
Caco-2 [7] = test: drug sensitivity score (DSS) for viability; higher = more toxic; extreme values may be limits of the assay
Calu-3 [8] = test: as above
HepG2 [9] = test: as above
U2OS [10] = test: cell viability relative to DMSO; higher = less toxic
Vero E6 [11] = test: as above
U2OS [12] = test: relative viability EC50 (midpoint between 100% and the lowest measured viability); higher = less toxic
U2OS [13] = test: drug sensitivity score (DSS) for viability; higher = more toxic; extreme values may be limits of the assay
Vero E6 [14] = test: as above
Vero E6 [15] = test: relative viability EC50 (midpoint between 100% and the lowest measured viability); higher = less toxic

Row | SMILES | cell viability (Caco-2 [1]; 1 nM) [%] | cell viability (Caco-2 [1]; 10 nM) [%] | cell viability (Caco-2 [1]; 100 nM) [%] | cell viability (Caco-2 [1]; 1000 nM) [%] | cell viability (Caco-2 [1]; 10000 nM) [%] | cell viability (Calu-3 [2]; 1 nM) [%] | cell viability (Calu-3 [2]; 10 nM) [%] | cell viability (Calu-3 [2]; 100 nM) [%] | cell viability (Calu-3 [2]; 1000 nM) [%] | cell viability (Calu-3 [2]; 10000 nM) [%] | cell viability (HepG2 [3]; 1 nM) [%] | cell viability (HepG2 [3]; 10 nM) [%] | cell viability (HepG2 [3]; 100 nM) [%] | cell viability (HepG2 [3]; 1000 nM) [%] | cell viability (HepG2 [3]; 10000 nM) [%] | relative viability EC50 (Caco-2 [4]) [µM] | relative viability EC50 (Calu-3 [5]) [µM] | relative viability EC50 (HepG2 [6]) [µM] | drug sensitivity score (Caco-2 [7]) | drug sensitivity score (Calu-3 [8]) | drug sensitivity score (HepG2 [9]) | cell viability (U2OS [10]; 1 nM) [%] | cell viability (U2OS [10]; 10 nM) [%] | cell viability (U2OS [10]; 100 nM) [%] | cell viability (U2OS [10]; 1000 nM) [%] | cell viability (U2OS [10]; 10000 nM) [%] | cell viability (Vero E6 [11]; 1 nM) [%] | cell viability (Vero E6 [11]; 10 nM) [%] | cell viability (Vero E6 [11]; 100 nM) [%] | cell viability (Vero E6 [11]; 1000 nM) [%] | cell viability (Vero E6 [11]; 10000 nM) [%] | relative viability EC50 (U2OS [12]) [µM] | drug sensitivity score (U2OS [13]) | drug sensitivity score (Vero E6 [14]) | relative viability EC50 (Vero E6 [15]) [µM]
1 | CN1C[C@@H]2CN(c3ccc(-c4ccccc4)nn3)C[C@@H]2C1 | 105 | 104 | 101 | 103 | 99.5 | 90.3 | 100 | 97.6 | 98.6 | 91.6 | 104 | 97.3 | 110 | 98.9 | 96 | > 10 | > 10 | > 10 | 0 | 0 | 0 |  |  |  |  |  |  |  |  |  |  |  |  |  | 
2 | CNc1cc2c(Nc3cccc(Br)c3)ncnc2cn1 | 102 | 92.5 | 91.2 | 84.5 | 49.7 | 101 | 98.4 | 93.9 | 53.5 | 37.7 | 93.8 | 105 | 95.9 | 100 | 64.9 | 1.55 | 0.47 |  | 4.4 | 9.5 | 1.6 | 99.4 | 97.6 | 98.3 | 92.2 | 89.6 | 92.4 | 97.3 | 88.4 | 72.4 | 53.1 | > 10 | 0 | 6.2 | 
3 | COc1ccc(-c2ccc3c(N4CCOCC4)nc(N4C[C@@H](C)O[C@@H](C)C4)nc3n2)cc1CO |  |  |  |  |  |  |  |  |  |  |  |  |  |  |  |  |  |  |  | 10.1 | 7.2 |  |  |  |  |  |  |  |  |  |  |  | 5.1 | 4.6 | 
4 | NCCc1ccccn1 [2-pyridylethylamine] | 110 | 96.4 | 107 | 101 | 108 | 98.8 | 88.4 | 93.4 | 105 | 101 | 113 | 104 | 113 | 113 | 93.6 | > 10 | > 10 | > 10 | 0 | 0 | 0 |  |  |  |  |  | 95.2 | 105 | 105 | 102 | 96.6 |  |  | 0 | > 10
5 | c1ccc(N2CCN(Cc3nc4ccccc4[nH]3)CC2)nc1 [ABT-724] | 91.7 | 99.8 | 97.8 | 100 | 94 | 93.5 | 105 | 101 | 104 | 114 | 92.4 | 100 | 99.2 | 95.7 | 106 | > 10 | > 10 | > 10 | 0 | 0 | 0 | 98.8 | 103 | 98.7 | 104 | 98.6 |  |  |  |  |  | > 10 | 0 |  | 
6 | C1Cc2[nH]nc(-c3nn[nH]n3)c2C1 [MK-0354] | 97 | 91.1 | 95.2 | 88.9 | 102 | 99.8 | 92.7 | 91.6 | 112 | 101 | 102 | 98 | 95.6 | 105 | 95.4 | > 10 | > 10 | > 10 | 0 | 0 | 0 | 101 | 96.2 | 103 | 96.7 | 103 |  |  |  |  |  | > 10 | 0 |  | 
7 | COc1cc(S(C)(=O)=O)ccc1Nc1nc2ccc(-c3ccc(NC(=O)[C@H](C)c4ccc(F)cc4)cc3)cn2n1 [Mps1-IN-5] | 97.7 | 96.4 | 103 | 78.2 | 87.4 | 101 | 94.6 | 94.6 | 101 | 91.8 | 106 | 108 | 106 | 56.2 | 49.2 | > 10 | > 10 | 0.508 | 2.9 | 0 | 7.9 | 99.9 | 99.6 | 94.2 | 66.7 | 70.6 | 101 | 97 | 95.2 | 66.4 | 71.5 |  | 6.7 | 6.6 | 
8 | CC#CC(=O)N1CC[C@@H](n2c(=O)n(-c3ccc(Oc4ccccc4)cc3)c3c(N)ncnc32)C1 [ONO-4059] | 97.6 | 87 | 93.9 | 73.8 | 73.7 | 91.2 | 96.7 | 73.6 | 36 | 41.3 | 96.7 | 99.3 | 89.6 | 102 | 101 |  | 0.121 | > 10 | 4.4 | 14.8 | 0 | 101 | 91.4 | 103 | 92.5 | 93.6 | 89.5 | 97.4 | 90.7 | 80.2 | 68.2 | > 10 | 0 | 3.9 | 
9 | Nc1cc(F)ccc1NC(=O)/C=C/c1cnn(C/C=C/c2ccccc2)c1 [RGFP966] | 100 | 98.9 | 92.6 | 91.2 | 76.7 | 99.3 | 106 | 89.2 | 87.6 | 51.4 | 93.2 | 105 | 96.4 | 87.2 | 52.4 | > 10 |  |  | 1.4 | 4.1 | 4.4 | 92.9 | 104 | 92.2 | 89.5 | 68.6 | 104 | 106 | 105 | 95.9 | 66.2 |  | 2.2 | 2.2 | 
10 | CN[C@@H](C)C(=O)N[C@H]1CCCC[C@H]2CC[C@@H](C(=O)N[C@@H](c3ccccc3)c3cn(CCCCc4ccc(CCCCn5cc([C@@H](NC(=O)[C@@H]6CC[C@@H]7CCCC[C@H](NC(=O)[C@H](C)NC)C(=O)N76)c6ccccc6)nn5)cc4)nn3)N2C1=O [SM-164] | 105 | 109 | 85.5 | 84 | 98.4 | 103 | 90 | 99 | 89.2 | 81.3 | 106 | 104 | 98.6 | 96.9 | 90.1 | > 10 | > 10 | > 10 | 2.7 | 0.9 | 0 | 99.5 | 108 | 102 | 98.8 | 99.7 |  |  |  |  |  | > 10 | 0 |  | 
11 | COc1cc2c(NC3CCN(CC4CCCCC4)CC3)nc(N3CCCN(C(C)C)CC3)nc2cc1OCCCN1CCCCC1 [UNC0631] | 97.7 | 104 | 103 | 84.4 | 83.2 | 103 | 97.2 | 104 | 103 | 18.9 | 104 | 111 | 100 | 96.3 | 0.2 | > 10 | 3.36 | 2.89 | 1.6 | 4.3 | 6.1 | 102 | 102 | 102 | 98.7 | 74.2 | 93.4 | 97.1 | 88.6 | 93 | 50.9 |  | 1.2 | 3.8 | 
12 | Cc1ccc(-c2nc3ccc(C)cn3c2CC(=O)N(C)C)cc1 [ZOLPIDEM] | 95.5 | 97 | 117 | 95.1 | 98.1 | 102 | 109 | 97 | 95.9 | 105 | 110 | 97.7 | 101 | 97.1 | 99.6 | > 10 | > 10 | > 10 | 0 | 0 | 0 | 101 | 104 | 101 | 100 | 96.2 |  |  |  |  |  | > 10 | 0 |  | 
13 | Cc1cccc(C)c1NC(=O)c1ccc(N)cc1 [ameltolide] | 89.3 | 94.4 | 102 | 110 | 85.4 | 95.7 | 92.7 | 83 | 92.5 | 97.1 | 99.6 | 89.3 | 86.2 | 76 | 98.7 | > 10 | > 10 | > 10 | 0.1 | 0 | 0 | 97 | 103 | 94.6 | 99.2 | 94.2 |  |  |  |  |  | > 10 | 0 |  | 
14 | CCC(C)(CN(C)C)OC(=O)c1ccccc1 (configuration not stated) [amyleine] | 115 | 88.1 | 97.3 | 101 | 92.7 | 106 | 95.6 | 101 | 102 | 114 | 106 | 103 | 109 | 98.1 | 88.7 | > 10 | > 10 | > 10 | 0 | 0 | 0.1 |  |  |  |  |  | 108 | 99.8 | 99 | 104 | 100 |  |  | 0 | > 10
15 | COC(=O)[C@H](Cc1ccccc1)NC(=O)[C@@H](N)CC(=O)O [aspartame] | 97.8 | 99.1 | 101 | 99.6 | 94 | 91.2 | 100 | 92.8 | 89.4 | 96.5 | 98.3 | 91.6 | 98.2 | 94.3 | 102 | > 10 | > 10 | > 10 | 0 | 0 | 0 | 99.8 | 99.7 | 98.6 | 103 | 101 |  |  |  |  |  | > 10 | 0 |  | 
16 | Cn1c(=O)c2c(ncn2C)n(C)c1=O [caffeine] |  |  |  |  |  |  |  |  |  |  |  |  |  |  |  |  |  |  |  | 0 | 0 |  |  |  |  |  |  |  |  |  |  |  | 0 | 0 | 
17 | O=C(O)c1cc(=O)c2ccccc2o1 [chromocarb] | 99.8 | 109 | 104 | 110 | 108 | 81.8 | 93.2 | 86.8 | 103 | 93.7 | 114 | 106 | 114 | 98.5 | 110 | > 10 | > 10 | > 10 | 0 | 0 | 0 |  |  |  |  |  |  |  |  |  |  |  |  |  | 
